In patent US20240270713A1, “NOVEL COMPOUND EXHIBITING THERAPEUTIC EFFECT ON INFLAMMATORY DISEASE AS P38 MAP KINASE INHIBITOR” (PRAZERTHERAPEUTICS INC., priority 2021, published 2024):

Key:
IL-1β mRNA = test: Cytokine mRNA expression inhibitory ability, IL-1β, LPS-treated BV2 cells; assay type: cell-based; settings: 1 μM compound 24 hours, then 1000 ng/ml LPS 24 hours
Description: (§1) Evaluation of cytokine mRNA expression inhibitory ability by inflammatory response
(§2) In order to identify inhibition of p-p38 MAPK, the inhibition of p38 MAPK was identified by treating each compound to BV2 cells obtained by converting microglia that induces inflammation according to p-p38 MAPK activity in the brain into cancerous cells. Briefly, BV2 cells were cultured in Dulbecco's modified Eagle Medium supplemented with 10% fetal bovine serum and penicillin/streptomycin (100 U/ml). BV2 cells were treated with 1 μM of Compounds 4 to 6 according to the present disclosure in a culture dish respectively and cultured for 24 hours in a CO2 incubator, and then treated with 1000 ng/ml of LPS, followed by additional culture for 24 hours in a CO2 incubator.
(§3) After the cell culture was completed according to the experimental conditions, washing was performed with cold phosphate buffered saline (PBS). The cells were then collected and centrifuged at 1200 rpm for 3 minutes. RNA was extracted according to the method provided in the Hybrid-R total RNA purification kit (GeneAllR), 305-101). After measuring the concentration and purity of RNA using Nanodrop, cDNA was synthesized according to the method provided in TOPscript RT DryMIX (Enzynomics, RT200). […]

p-p38 MAPK = p-p38 MAPK (Homo sapiens (Human), UniProt Q16539); test: p38 MAPK protein inhibitory ability in brain-derived cells (p-p38 immunoblot, SH-SY5Y); assay type: cell-based
Description: Evaluation of p38 MAPK protein inhibitory ability in brain-derived cells
In order to identify inhibition of p-p38 MAPK in brain cells, the inhibition of p38 MAPK was identified by inducing inflammation after treating each compound to SH-SYSY cells obtained by converting human neurons into cancerous cells. In short, SH-SY5Y cells were cultured in Minimum essential medium/Eagle's balanced salts supplemented with 10% fetal bovine serum and penicillin/streptomycin (100 U/ml). SH-SY5Y cells were treated with 1 μM of Compounds 4 and 6 according to the present disclosure in a culture dish respectively and cultured for 24 hours in a CO2 incubator, and then treated with 1000 ng/ml of LPS, followed by additional culture for 6 hours in a CO2 incubator.
After cell culture was terminated according to the experimental conditions, cells were washed with cold phosphate buffered saline (PBS). The cells were then collected and centrifuged at 1200 rpm for 3 minutes. The cells in the sediment were lysed with 2X sample buffer (1M Tris-HCl pH 6.8, 50% glycerol, 10% SDS, 2-mercaptoethanol, 1% bromophenol blue) and boiled at 100° C. for 10 minutes. The prepared protein samples were subjected to sodium dodecyl sulfate poly acrylamide gel electrophoresis and transferred to PVDF membrane (Millipore). For a specific binding reaction between the protein in the PVDF membrane and antibody, blocking was performed in a 5% bovine serum albumin (BSA, RMbio) solution. Subsequently, the BSA solution was discarded, and the membrane was washed with PBS-T (0.5% Tween 20 in PBS). The binding reaction of the protein in the membrane and antibody was performed overnight at 4° C. and washed again with PBS-T. Finally, a secondary antibody (Cell signaling Technology) conjugated with horse radish peroxidase (HRP) was diluted in PBS-T and reacted at room temperature for 2 hours. Luminata Forte HRP substrate (Millipore) was used to determine the amount of protein in the membrane, the results of which are shown in Table 8 below.

TNFα = TNFα inhibitory ability by cellular inflammatory response (supernatant, antibody-coated plate), Raw264.7 cells; assay type: cell-based; settings: Mus musculus, 1 μM compound 24 hours, then 100 ng/ml LPS 24 hours, supernatant protein
Description: Evaluation of TNFα inhibitory ability by cellular inflammatory response
(§4) In order to identify inhibition of p-p38 MAPK, inhibition of p38 MAPK was identified after treating each compound to Raw264.7 cells obtained by converting macrophages that induces inflammation according to p-p38 MAPK activity cancerous cells. Briefly, Raw264.7 cells were cultured in Dulbecco's modified Eagle Medium supplemented with 10% fetal bovine serum and penicillin/streptomycin (100 U/ml). Raw264.7 cells were treated with 1 μM of Compounds 1 to 5 according to the present disclosure in a culture dish respectively and cultured for 24 hours in a CO2 incubator, and then treated with 100 ng/ml of LPS, followed by additional culture for 24 hours in a CO2 incubator.
After the cell culture was completed according to the experimental conditions, the supernatant was obtained and centrifuged for 3 minutes at 1200 rpm. The centrifuged supernatant was dispensed into an antibody-coated plate, reacted at room temperature for 2 hours, and washed with PBS-T (0.5% tween 20 in PBS). After dispensing detection antibody including HRP, a reaction was performed at room temperature for 1 hour, and the amount of protein was checked at a wavelength of 450 nm, the results of which are shown in Table 7 below.

p38 alpha = p38 alpha (Homo sapiens (Human), UniProt Q16539); test: p38α MAPK inhibitory ability (peptide/kinase mixture, development reagent, 445/520 nm); assay type: biochemical; settings: 1 hour at room temperature
Description: Evaluation of p38a mitogen-activated protein kinase (MAPK) inhibitory ability
To determine the ability to inhibit p38 MAPK, Compounds 1 to 5 were diluted to determine the inhibitory effect depending on a concentration. Briefly, the compounds were diluted at concentrations of 1000, 333, 111, 37.0, 12.3, 4.12, 1.37, 0.457, 0.152, and 0.0495 nM, respectively, and then a peptide/kinase mixture (final 7.07-28.3 ng p38 alpha, 2 μM serine/threonine 15, 50 mM HEPES pH 7.0, 0.01% NaN3) and ATP solution were added respectively. After reacting at room temperature for 1 hour, a development reagent was added, followed by a reaction again at room temperature for 1 hour.

TNFα mRNA [1] = test: Cytokine mRNA expression inhibitory ability, TNFα, LPS-treated BV2 cells; assay type: cell-based; settings: 1 μM compound 24 hours, then 1000 ng/ml LPS 24 hours
Description: as §1, §2, §3

TNFα mRNA [2] = test: Cytokine mRNA expression inhibitory ability, TNFα, LPS-treated Raw264.7 cells; assay type: cell-based; settings: 1 μM compound 24 hours, then 100 ng/ml LPS 24 hours
Description: Evaluation of cytokine mRNA expression inhibitory ability according to inflammatory response
as §4
After cell culture was terminated according to the experimental conditions, cells were washed with cold phosphate buffered saline (PBS). The cells were then collected and centrifuged at 1200 rpm for 3 minutes. RNA was extracted according to the method provided in the Hybrid-R total RNA purification kit (GeneAll, 305-101). After measuring the concentration and purity of RNA using Nanodrop, cDNA was synthesized according to the method provided in TOPscript RT DryMIX (Enzynomics, RT200). After a reaction at 95° C. for 3 minutes using SYBR Green Mix along with primer, cDNA was subjected to repetitive reactions 30 times at 95° C. for 10 seconds, at 55° C. for 10 seconds, and at 72° C. for 30 seconds to determine the RNA expression level. The results are shown in Tables 5 and 6 below and FIGS. 1 and 2.

p-p38 MAPK, sequence (Q16539 whole entry): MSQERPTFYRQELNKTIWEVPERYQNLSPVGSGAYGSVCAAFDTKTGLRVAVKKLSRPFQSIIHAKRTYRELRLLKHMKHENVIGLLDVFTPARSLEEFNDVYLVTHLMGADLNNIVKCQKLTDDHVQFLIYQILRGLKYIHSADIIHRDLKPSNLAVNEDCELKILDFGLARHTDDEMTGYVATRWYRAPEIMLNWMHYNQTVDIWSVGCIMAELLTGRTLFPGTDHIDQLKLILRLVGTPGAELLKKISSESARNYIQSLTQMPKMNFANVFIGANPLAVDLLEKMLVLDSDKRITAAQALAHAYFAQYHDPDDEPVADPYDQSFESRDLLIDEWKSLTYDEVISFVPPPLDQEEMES
p38 alpha, sequence (Q16539 whole entry): as above

- inhibition at 1 µM (p-p38 MAPK; 1 μM compound 24 hours, then 1000 ng/ml LPS 6 hours): 74.6%
- IC50 (p38 alpha): 18.8 nM
Structure (SMILES): Cc1c(F)cc(C(=O)NC2CC2)cc1-c1ccc(C(=O)c2c[nH]c3ccccc23)cn1 [Compound 4, 3-(5-(1H-indole-3-carbonyl)pyridin-2-yl)-N-cyclopropyl-5-fluoro-4-methylbenzamide]
- IL-1β mRNA inhibition (IL-1β mRNA): 68.5%
- p38 phosphorylation in cells derived from human (result in words) (p-p38 MAPK; 1 μM): effectively inhibited p38 phosphorylation
- inhibition at 1 µM (TNFα): 76.6%
- TNFα mRNA inhibition (TNFα mRNA [1]): 24.5%
- TNFα mRNA inhibition (TNFα mRNA [2]): 51.5%
